Laboratory results as given in patent publication US9079859B2, “Synthetic lethal targeting of glucose transport” (AUCKLAND UNISERVICES LIMITED, priority 2011, dated 2015).

Tests used:
ACHN shVHL cells = assay: Clonogenic survival, ACHN with shRNA to VHL; format: cell-based; conditions: clonogenic survival (FIG. 1E); only the VHL-silenced cells
Procedure: Cell Viability Assays. For 2,3-bis[2-methoxy-4-nitro-5-sulfophenyl]-2H-tetrazolium-5-carboxanilide (XTT) assays, five thousand cells were plated in 96-well plates. The next day, vehicle (DMSO) or drug was added by serial dilution. Four days later, media were aspirated, XTT solution (0.3 mg/ml of XTT (Sigma), […] N-methyl dibenxopyrazine methyl sulfate (Sigma) in phenol red-free media) was added, and the plates were incubated at 37° C. for 1-2 hours. Metabolism of XTT was quantified by measuring the absorbance at 450 nm. IC50s were calculated using linear interpolation. For clonogenic survival assays, three hundred cells were plated per 60 mm tissue culture dish. The cells were allowed to attach overnight and then treated with vehicle or drug for 14 days. Colonies were fixed and stained with crystal violet (0.1% crystal violet in 95% ethanol). All conditions were measured in triplicate and each experiment was done in duplicate or triplicate. To determine necrosis, cells were treated with drug for a given time point. Media and cells were collected, centrifugated, and resuspended in 0.4% trypan blue (Invitrogen). Live and dead cells were counted on a hematocytometer.

LC3 = assay: Autophagy markers (vacuoles, LC3 processing); format: cell-based; conditions: RCC4 and RCC4/VHL; 1.25, 2.5 and 5 μM
p53 = assay: DNA damage response (p53, phospho-p53 Western blot); format: cell-based; conditions: RCC4 and RCC4/VHL; 1.25, 2.5 and 5 μM
RCC4 cells = assay: Glucose uptake (2-deoxy-D-[3H]glucose), RCC4; format: cell-based
Procedure: (§1) Glucose Uptake. One hundred thousand cells were plated per well in a six-well plate. The next day, cells were treated with the indicated concentration of drug and incubated for the indicated time. Cells were then washed twice with phosphate-buffered saline, incubated in low-glucose medium for 30 minutes, and 3H-2-deoxyglucose (0.5 μCi) was added in 1 ml of glucose-free media for an additional hour. Cells were washed twice in PBS and lysed (0.2 N NaOH and 0.2% sodium dodecyl sulfate). Glucose uptake was quantified with a scintillation counter.

hexokinase [1] = assay: Hexokinase activity in whole-cell lysates, RCC4; format: cell-based; conditions: only after three days of treatment
Excerpt: (§2) We then examined whether this decrease in glycolysis in response to STF-31 was due to a decrease in glucose uptake or whether STF-31 inhibited a particular glycolytic enzyme. To test this, we measured glucose uptake using 2-deoxy-D-[^3H] glucose, a non-hydrolyzable, radioactive glucose analog. STF-31 impaired glucose uptake in RCC4 and 786-O cells but not in the matched isogenic cells expressing wild-type VHL (FIGS. 2B, 6A, and 6C). RCC4/VHL cells had lower baseline levels of glucose uptake compared to RCC4 cells and were unaffected by treatment with STF-31. […] Because the phosphorylation of glucose to glucose-6-phosphate is important for preventing glucose efflux from the cell, we asked whether STF-31 might function by inhibiting the phosphorylation of glucose by hexokinase. […]
(§3) Cell Culture and Reagents. […] GLUT1 was detected with anti-GLUT1 antibody from NeoMarkers/LabVision/Fisher. For immunofluorescent studies, GLUT1, GLUT2, and GLUT3 antibodies were purchased from R&D. Pyruvate/lactate levels and hexokinase activity were both measured by fluorometric assay (BioVision and Sigma-Aldrich, respectively). ATP levels were measured by bioluminescence assay (ATP Determination Kit from Molecular Probes/Invitrogen). […]

hexokinase [2] = assay: Hexokinase activity in whole-cell lysates, RCC4/VHL; format: cell-based
Excerpt: as §2, §3

[3] = tested on: RCC4 cells with HIF-1β silenced; assay: Glucose uptake in RCC4 cells with siRNA to HIF-1β; format: cell-based
Excerpt: To further investigate the relationship between HIF and STF-31 toxicity, we silenced HIF-1β in RCC4 cells and assessed its affect on glucose uptake (FIG. 6D). Transiently inhibiting HIF-1β, the constitutively expressed binding partner of HIF-1α and HIF-2α reduces HIF activity in RCC4 cells to the levels found in wild-type VHL cells. Glucose uptake was insensitive to treatment with STF-31 when the HIF-1β was silenced in RCC4 cells, further supporting the concept that the HIF-dependent glucose uptake was responsible for the differential toxicity of STF-31 to VHL-deficient renal carcinomas (FIG. 2E).
as §1

[4] = tested on: VHL-deficient and wild-type VHL cells; assay: Oxygen consumption; format: cell-based
Procedure: Oxygen Consumption. Following treatment with vehicle or drug, cells were trypsinized, suspended at 5 million cells per ml in DMEM+10% FCS, and oxygen consumption was measured in 0.5 ml volume using an Oxytherm electrode unit (Hansatech).

VHL-deficient cells = assay: ATP levels (bioluminescence assay); format: cell-based
Procedure: (§4) Cell Culture and Reagents. All cells were grown in DMEM+10% FCS. ACHN and ACHN shVHL were a kind gift from George V. Thomas (UCLA). HIF overexpressing clones were described previously (Sutphin et al., Cancer Res, 67:5896-5905 (2007)). Transfection of RNA oligos were performed with DnarmaFECT Reagent 1 (Dharmcon), according to manufacturer's directions. ON-TARGETplus SMART pools against HIF-1 R/ARNT were purchased from Dharmacon. Inducible shRNAmir to GLUT1 was purchased from Open Biosystems. GLUT1 was detected with anti-GLUT1 antibody from NeoMarkers/LabVision/Fisher. For immunofluorescent studies, GLUT1, GLUT2, and GLUT3 antibodies were purchased from R&D. Pyruvate/lactate levels and hexokinase activity were both measured by fluorometric assay (BioVision and Sigma-Aldrich, respectively). ATP levels were measured by bioluminescence assay (ATP Determination Kit from Molecular Probes/Invitrogen). In vitro kinase activities were performed by Millipore Kinase Profiler.

50 different kinases = assay: In vitro kinase panel (Millipore Kinase Profiler); format: biochemical
Procedure: as §4

ACHN = assay: RCC panel sensitivity (Table 2); format: cell-based; conditions: VHL wild-type
Caki-1 = assay: RCC panel sensitivity (Table 2); format: cell-based; conditions: Caki-1, VHL wild-type
RCC4/VHL = assay: RCC panel sensitivity (Table 2); format: cell-based; conditions: VHL wild-type
SN12C = assay: RCC panel sensitivity (Table 2); format: cell-based; conditions: VHL wild-type
SN12C shVHL = assay: RCC panel sensitivity (Table 2); format: cell-based; conditions: VHL silenced
UMRC6 = assay: RCC panel sensitivity (Table 2); format: cell-based; conditions: UMRC6, VHL mutant
UMRC6/VHL = assay: RCC panel sensitivity (Table 2); format: cell-based; conditions: VHL wild-type
PAK2 = target: T1, PAK2 (Homo sapiens, UniProt Q13177); assay: Kinase Profiler; format: biochemical; conditions: STF-31 10 μM
T1 construct: purchased Millipore Kinase Profiler
T1 sequence (Q13177 whole entry, species assumed): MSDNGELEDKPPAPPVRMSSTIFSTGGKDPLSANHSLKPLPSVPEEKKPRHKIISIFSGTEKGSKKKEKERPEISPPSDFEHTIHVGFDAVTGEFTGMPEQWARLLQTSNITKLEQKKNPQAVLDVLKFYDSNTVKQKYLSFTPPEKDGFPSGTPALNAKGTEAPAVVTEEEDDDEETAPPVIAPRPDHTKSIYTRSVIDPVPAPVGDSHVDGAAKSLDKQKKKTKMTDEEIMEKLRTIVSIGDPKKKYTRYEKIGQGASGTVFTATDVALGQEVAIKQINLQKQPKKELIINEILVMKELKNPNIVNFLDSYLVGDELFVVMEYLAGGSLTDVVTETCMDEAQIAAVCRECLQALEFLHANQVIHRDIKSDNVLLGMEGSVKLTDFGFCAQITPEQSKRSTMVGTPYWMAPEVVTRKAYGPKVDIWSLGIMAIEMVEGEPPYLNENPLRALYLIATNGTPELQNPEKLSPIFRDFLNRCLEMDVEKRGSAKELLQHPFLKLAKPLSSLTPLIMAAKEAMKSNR
Procedure: as §4

In the case of CC(C)(C)c1ccc(S(=O)(=O)NCc2ccc(C(=O)Nc3cccnc3)cc2)cc1 [STF-31], the “sensitivity of ACHN cells with VHL silenced by shRNA” value (ACHN shVHL cells) is reported as “sensitive”, the “morphologic or biochemical features of autophagy (vacuoles, LC3 processing)” value (LC3) is reported as “did not induce” and the “total p53 or phospho-p53 levels” value (p53) is reported as “did not increase”. The “glucose uptake in RCC4 cells” value (RCC4 cells; 2-deoxy-D-[3H]glucose) was “impaired”, the “glucose uptake in RCC4 cells versus concentration” value (RCC4 cells; increasing concentrations of STF-31) was “dose-dependent” and the “hexokinase activity in RCC4 cells” value (hexokinase [1]) was “inhibited”. The “hexokinase activity of RCC4/VHL cells” value (hexokinase [2]) was “unchanged”, the “glucose uptake when HIF-1β was silenced in RCC4 cells” value [3] was “insensitive” and the “oxygen consumption, treated versus not treated cells” value [4] was “no difference”. The “inhibition of ATP production versus concentration” value (VHL-deficient cells) was “dose-dependent”, the “decrease in ATP levels” value (VHL-deficient cells; VHL-deficient cells) was 75% and the “kinase inhibition across 50 different kinases” value (50 different kinases) was “no significant decrease”. For the same molecule, the “3-series sensitivity (sensitivity to STF-31)” value (shortened to “3-series sensitivity”) (ACHN) was “No”, the “3-series sensitivity” value (Caki-1) was “Yes” and the “3-series sensitivity” value (RCC4/VHL) was “No”. For the same molecule, the “3-series sensitivity” value (SN12C) was “Yes”, the “3-series sensitivity” value (SN12C shVHL) was “Yes” and the “3-series sensitivity” value (UMRC6) was “No”. For the same molecule, the “3-series sensitivity” value (UMRC6/VHL) was “No” and the “Kinase response to STF-31” value (PAK2) was 97.
